Experimental data from US7834024B2, “Compositions and methods for inhibition of the JAK pathway” (Rigel Pharmaceuticals, Inc., priority 2007, dated 2010).
Where a name gives a salt, the structure may show the parent alone. Read-outs that look alike come from different tables or passages of the source.

Test system: Ramos B-Cell Line Stimulated with IL-4 (JAK-1 and JAK-3 / Stat-6, CD23)
Experiment: Assay for Ramos B-Cell Line Stimulated with IL-4 (CD23 upregulation, FACS)
Format: cell-based
Conditions: human Ramos B cells, compound 1 hour, IL-4 50 units/mL for 20-24 hours, anti-CD23-PE FACS, read-out: Example 2 (IC50)
Description: One means of assaying for such inhibition is detection of the effect of the 2,4-pyrimidinediamine compounds on the upregulation of downstream gene products. In the Ramos/IL4 assay, B-cells are stimulated with the cytokine Interleukin-4 (IL-4) leading to the activation of the JAK/Stat pathway through phosphorylation of the JAK family kinases, JAK1 and JAK3, which in turn phosphorylate and activate the transcription factor Stat-6. […] To study the effect of inhibitors (e.g., the 2,4-substituted pyrimindinediamine compounds described herein) on the JAK1 and JAK3 kinases, human Ramos B cells are stimulated with human IL-4. 20 to 24 hours post stimulation, cells are stained for upregulation of CD23 and analyzed using flow cytometry (FACS).
B-cells stimulated with cytokine Interleukin-4 (IL-4) activate the JAK/Stat pathway through phosphorylation of the JAK family kinases, JAK-1 and JAK-3, which in turn phosphorylate and activate the transcription factor Stat-6. […] To study the effect of inhibitors on the JAK family kinases, human Ramos B cells were stimulated with human IL-4.
Cells were maintained at a density of 3.5×10^5. The day before the experiment, Ramos B-cells were diluted to 3.5×10^5 cells/mL to ensure that they were in a logarithmic growth phase.
Cells were spun down and suspended in RPMI with 5% serum. 5×10^4 cells were used per point in a 96-well tissue culture plate. Cells were pre-incubated with compound or DMSO (Sigma-Aldrich, St. Louis, Mo., Cat No. D2650) vehicle control for 1 hour in a 37° C. incubator. Cells were then stimulated with IL-4 (Peprotech Inc., Rocky Hill, N.J., Cat No. 200-04) for a final concentration of 50 units/mL for 20-24 hours. […] Detection was performed using a BD LSR I System Flow Cytometer, purchased from Becton Dickinson Biosciences of San Jose, Calif.

Compound | IC50 | IC50 (Homo sapiens, Ramos)
5-Fluoro-N2-[2-(2-(N-morpholinyl)ethylaminocarbonyl)benzofuran-5-yl]-N4-[4-(2-propynyloxy)phenyl]-2,4-pyrimidinediamine [III-3] | 149 nM | –
CNC(=O)COc1cccc(Nc2ncc(F)c(Nc3ccc4c(c3)N(Cc3ccc(OC)cc3)C(=O)C(C)S4)n2)c1 (racemic) [II-13, Racemic-5-fluoro-N2-[3-(N-methylaminocarbonylmethyleneoxy)phenyl]-N4-[2-methyl-3-oxo-4-(4-methoxybenzyl)-2H-benzo[1,4]thiazin-6-yl]-2,4-pyrimidinediamine] | 938 nM | –
CNC(=O)COc1cccc(Nc2ncc(Br)c(Nc3ccc(OC)c(Cl)c3)n2)c1 [Compound I-1, 5-Bromo-N4-(3-chloro-4-methoxyphenyl)-N2-[3-(N-methylaminocarbonylmethyleneoxy)phenyl]-2,4-pyrimidinediamine] | 123 nM | –
COc1ccc(Nc2nc(Nc3ccc(C(=O)Nc4ccn(C)n4)cc3)ncc2F)cc1Cl [Compound I-2, N4-(3-Chloro-4-methoxyphenyl)-5-fluoro-N2-[4-((1-methyl-1H-pyrazol-3-yl)aminocarbonyl)phenyl]-2,4-pyrimidinediamine] | – | 317 nM
CCn1nccc1NC(=O)c1ccc(Nc2ncc(F)c(Nc3ccc(OC)c(Cl)c3)n2)cc1 [Compound I-3, N4-(3-Chloro-4-methoxyphenyl)-N2-[4-((I-ethyl-1H-pyrazol-5-yl)aminocarbonyl)phenyl]-5-fluoro-2,4-pyrimidinediamine] | 119 nM | –
COc1ccc(Nc2nc(Nc3ccc(C(=O)Nc4ccnn4C)cc3)ncc2F)cc1Cl [Compound I-4, N4-(3-Chloro-4-methoxyphenyl)-5-fluoro-N2-[4-((1-methyl-1H-pyrazol-5-yl)aminocarbonyl)phenyl]-2,4-pyrimidinediamine] | – | 57.5 nM
C#CCOc1ccc(Nc2nc(Nc3cccc(C(N)=S)c3)ncc2F)cc1 [Compound I-5, N2-(3-Aminocarbonothioylphenyl)-5-fluoro-N4-[4-(2-propynyloxy)phenyl]-2,4-pyrimidinediamine] | – | 1150 nM
C#CCOc1ccc(Nc2nc(Nc3cccc(C(N)=O)c3)ncc2F)cc1 [Compound I-6, N2-(3-Aminocarbonylphenyl)-5-fluoro-N4-[4-(2-propynyloxy)phenyl]-2,4-pyrimidinediamine] | – | 2770 nM
C#CCOc1ccc(Nc2nc(Nc3ccc(C(N)=S)cc3)ncc2F)cc1 [Compound I-7, N2-(4-Aminocarbonothioylphenyl)-5-fluoro-N4-[4-(2-propynyloxy)phenyl]-2,4-pyrimidinediamine] | – | 223 nM
C#CCOc1ccc(Nc2nc(Nc3ccc(C(N)=O)cc3)ncc2F)cc1 [Compound I-8, N2-(4-Aminocarbonylphenyl)-5-fluoro-N4-[4-(2-propynyloxy)phenyl]-2,4-pyrimidinediamine] | – | 118 nM
Cc1noc(COc2ccc(Nc3nc(Nc4ccc(C(N)=O)cc4)ncc3F)cc2)n1 [Compound I-10, N2-(4-Aminocarbonylphenyl)-5-fluoro-N4-[4-((3-methyl-1,2,4-oxadiazol-5-yl)methyleneoxy)phenyl]-2,4-pyrimidinediamine Hydrogen Chloride Salt] | 4.85 nM | –
Cc1cc(Nc2nc(Nc3ccc(C(N)=O)c(Cl)c3)ncc2F)ccc1N1CCN(C)CC1 [Compound I-11, N2-(4-Aminocarbonyl-3-chlorophenyl)-5-fluoro-N4-[3-methyl-4-(4-methylpiperazin-1-yl)phenyl]-2,4-pyrimidinediamine] | – | 56.3 nM
NC(=O)c1ccc(Nc2ncc(F)c(Nc3cccc(-c4ncco4)c3)n2)cc1 [Compound I-13, N2-(4-Aminocarbonylphenyl)-5-fluoro-N4-[3-(oxazol-2-yl)phenyl]-2,4-pyrimidinediamine] | – | 752 nM
NC(=O)c1ccc(Nc2ncc(F)c(Nc3cccc(-c4ncco4)c3)n2)cc1Cl [Compound I-14, N2-(4-Aminocarbonyl-3-chlorophenyl)-5-fluoro-N4-[3-(oxazol-2-yl)phenyl]-2,4-pyrimidinediamine] | – | 178 nM
Cc1noc(COc2ccc(N(C)c3nc(Nc4ccc(C(N)=O)cc4)ncc3F)cc2)n1 [Compound I-15, N2-(4-Aminocarbonylphenyl)-5-fluoro-N4-methyl-N4-[4-((3-methyl-1,2,4-oxadiazol-5-yl)methyleneoxy)phenyl]-2,4-pyrimidinediamine] | 693 nM | –
Cc1noc(COc2ccc(N(C)c3nc(Nc4ccc(C(N)=O)c(Cl)c4)ncc3F)cc2)n1 [Compound I-16, N2-(4-Aminocarbonyl-3-chlorophenyl)-5-fluoro-N4-methyl-N4-[4-((3-methyl-1,2,4-oxadiazol-5-yl)methyleneoxy)phenyl]-2,4-pyrimidinediamine] | 909 nM | –

Compound | IC50 | IC50 (Homo sapiens, Ramos)
Cc1noc(COc2ccc(N(C)c3nc(Nc4cccc(C#N)c4)ncc3F)cc2)n1 [Compound I-17, N2-(3-Cyanophenyl)-5-fluoro-N4-methyl-N4-[4-((3-methyl-1,2,4-oxadiazol-5-yl)methyleneoxy)phenyl]-2,4-pyrimidinediamine] | 1780 nM | –
COc1ccc(Nc2nc(Nc3cccc(C#N)c3)ncc2F)cc1Cl [Compound I-18, N4-(3-Chloro-4-methoxyphenyl)-N2-(3-cyanophenyl)-5-fluoro-2,4-pyrimidinediamine] | – | 266 nM
N#Cc1cccc(Nc2ncc(F)c(Nc3ccc(OCC(N)=O)cc3)n2)c1 [Compound I-22, N4-(4-Aminocarbonylmethoxyphenyl)-N2-(3-cyanophenyl)-5-fluoro-2,4-pyrimidinediamine] | – | 886 nM
NC(=O)COc1ccc(Nc2nc(Nc3cccc(C(N)=O)c3)ncc2F)cc1 [Compound I-23, N4-(4-Aminocarbonylmethoxyphenyl)-N2-(3-aminocarbonylphenyl)-5-fluoro-2,4-pyrimidinediamine] | – | 3070 nM
N#Cc1ccc(Nc2ncc(F)c(Nc3ccc(OCC(N)=O)cc3)n2)cc1 [Compound I-24, N4-(4-Aminocarbonylmethoxyphenyl)-N2-(4-cyanophenyl)-5-fluoro-2,4-pyrimidinediamine] | – | 245 nM
NC(=O)COc1ccc(Nc2nc(Nc3ccc(C(N)=O)cc3)ncc2F)cc1 [Compound I-25, N4-(4-Aminocarbonylmethoxyphenyl)-N2-(4-aminocarbonylphenyl)-5-fluoro-2,4-pyrimidinediamine] | – | 420 nM
CC(C)OC(=O)COc1ccc(Nc2nc(Nc3ccc(C(=O)N4CCN(C)CC4)cc3)ncc2F)cc1 [Compound I-26, 5-Fluoro-N4-[4-((1-methylethoxy)carbonylmethoxy)phenyl]-N2-[4-((4-methylpiperazin-1-yl)carbonyl)phenyl]-2,4-pyrimidinediamine] | – | 1830 nM
N#CCOc1ccc(Nc2nc(Nc3ccc(C(N)=O)cc3)ncc2F)cc1 [Compound I-27, N2-(4-Aminocarbonylphenyl)-N4-(4-cyanomethoxyphenyl)-5-fluoro-2,4-pyrimidinediamine] | – | 5.21 nM
N#CCOc1ccc(Nc2nc(Nc3cccc(C(N)=O)c3)ncc2F)cc1 [Compound I-28, N2-(3-Aminocarbonylphenyl)-N4-(4-cyanomethoxyphenyl)-5-fluoro-2,4-pyrimidinediamine] | – | 65.1 nM
N#CCOc1ccc(Nc2nc(Nc3ccc(C#N)cc3)ncc2F)cc1 [Compound I-29, N2-(4-Cyanophenyl)-N4-(4-cyanomethoxyphenyl)-5-fluoro-2,4-pyrimidinediamine] | – | 74.6 nM
N#CCOc1ccc(Nc2nc(Nc3cccc(C#N)c3)ncc2F)cc1 [Compound I-30, N4-(4-Cyanomethoxyphenyl)-N2-(3-cyanophenyl)-5-fluoro-2,4-pyrimidinediamine] | – | 71 nM
NC(=O)COc1cccc(Nc2nc(Nc3ccc(C(N)=O)cc3)ncc2F)c1 [Compound I-32, N4-(3-Aminocarbonylmethoxyphenyl)-N2-(4-aminocarbonylphenyl)-5-fluoro-2,4-pyrimidinediamine] | – | 184 nM
NC(=O)COc1cccc(Nc2nc(Nc3cccc(C(N)=O)c3)ncc2F)c1 [Compound I-33, N4-(3-Aminocarbonylmethoxyphenyl)-N2-(3-aminocarbonylphenyl)-5-fluoro-2,4-pyrimidinediamine] | – | 3050 nM
N#Cc1ccc(Nc2ncc(F)c(Nc3cccc(OCC(N)=O)c3)n2)cc1 [Compound I-34, N4-(3-Aminocarbonylmethoxyphenyl)-N2-(4-cyanophenyl)-5-fluoro-2,4-pyrimidinediamine] | – | 1250 nM
N#Cc1cccc(Nc2ncc(F)c(Nc3cccc(OCC(N)=O)c3)n2)c1 [Compound I-35, N4-(3-Aminocarbonylmethoxyphenyl)-N2-(3-cyanophenyl)-5-fluoro-2,4-pyrimidinediamine] | – | 326 nM
CN1CCN(C(=O)c2ccc(Nc3ncc(F)c(Nc4ccc(OCC(N)=O)cc4)n3)cc2)CC1 [Compound I-36, N4-(4-Aminocarbonylmethoxyphenyl)-5-fluoro-N2-[4-((4-methylpiperazin-1-yl)carbonyl)phenyl]-2,4-pyrimidinediamine] | – | 3020 nM
